Experimental data from patent US5641480A, “Hair care compositions comprising heteroatom containing alkyl aldonamide compounds” (Lever Brothers Company, Division of Conopco, Inc., priority 1994, dated 1997).
Where two headings read alike, the source gives them in different places.

Key:
[1] = Clarity of prototype shampoo compositions with sodium lauryl sulfate (Example 87); format: physicochemical; settings: room temperature, 6 months
Protocol: (§1) The prototype shampoo composition is as follows:
(§2) The above formulations were prepared by admixing the above ingredients in listed order and heating the mixture to about 80° C. with rapid stirring. The mixture was then cooled to about 40° C., placed in a clear jar and stored at room temperature for 6 months.

[2] = Critical micelle concentration, Wilhelmy plate method (Example 90); format: physicochemical
Protocol: The critical micelle concentration (CMC) is defined as the concentration at which a surfactant forms micelles in aqueous solution. Micellization is the preferred interfacial phenomena, since certain surfactant benefits such as detergency (the solubilization of soils), foaming, wetting or emulsification depend on the formation of these aggregates in solution.
The CMC value of C8 /C10 oxypropyl D-gluconamide was determined by plotting surface tension as a function of log(concentration) and extrapolating linear points to obtain an intersection point. The concentration at this point was taken as the CMC. The technique used was the Wilhelmy plate method and the instrument used was a Lauda Auto-Tensiometer. While wishing not to be bound to theory, it is believed that surfactants with low CMC values form micelles more readily at lower concentrations than those with high CMC values.

[3] = Efficiency in surface tension reduction, pC20 (Example 92); format: physicochemical; settings: 60 °C, estimated by extrapolation
Source text: Since surface tension reduction depends on the replacement of water molecules at the interface by surfactant molecules, the efficiency of a surfactant in reducing interfacial tension should reflect the concentration of surfactant at the interface relative to that in bulk liquid phase. A suitable measure of efficiency with which a surfactant performs this function can be described as pC20. This is defined as the negative logarithm of the bulk phase surfactant concentration necessary to reduce the surface tension of water by 20 dyn/cm and is given as:
pC20 =-log [C(-Δγ=20) ]=-log [C20]
C(-Δγ=20) =C20 is the bulk phase surfactant concentration necessary to reduce the surface tension of water by 20 dyn/cm.
In general, pC20 values are usually close to the minimum concentration needed to saturate the interface with surfactant molecules.

[4] = Effectiveness in reducing surface tension (Example 93); format: physicochemical; settings: 60 °C
Source text: As mentioned before, surface tension reduction depends on the replacement of water molecules at the interface by surfactant molecules, therefore the effectiveness of a surfactant in reducing interfacial surface tension should reflect the saturated concentration of surfactant at the interface relative to that in bulk liquid phase. During this process the surface tension of water steadily decreases as bulk phase surfactant concentration increases. This will continue until the concentration reaches the critical micelle concentration (CMC), above which the surface tension remains nearly unchanged and the interface is saturated with surfactant. The surface tension at the CMC is therefore very close to the minimum interfacial tension or maximum surface pressure that the system can achieve. The surface pressure at this point, IIcmc, is a suitable measure of the effectiveness of a surfactant in reducing surface tension and is given as:
.PI.cmc 20+2.3nRT(Γmax) log [CMC/C20 ]
n=1 which represents the number of ions whose surface concentration changes with the change in liquid phase suffactant concentration.
CMC/C20 =is the ratio of the critical micelle concentration to the bulk phase surfactant concentration necessary to reduce the surface tension of water by 20 dyn/cm.

[5] = Effectiveness of adsorption, surface excess concentration at surface saturation (Example 94); format: physicochemical; settings: 60 °C, estimated by extrapolation
Source text: The surface excess concentration at surface saturation (Γmax) is defined as a measure of the effectiveness of surfactant adsorption at the water/air interface and represents the maximum value to which adsorption can be obtained. Effectiveness of adsorption is related to the interfacial area occupied by the surfactant molecule. The smaller the effective cross-sectional area of a surfactant at the interface, the greater its effectiveness of adsorption. The effectiveness of adsorption is an important factor in determining surfactant properties such as detergency, foaming, wetting or emulsification. While not wishing to be bound by theory, it is believed that surfactants that absorb effectively at the interface tend have tightly packed coherent interfacial films and often provide better surfactant benefits than those with loosely packed noncoherent films. The effectiveness of adsorption of C8 /C10 oxypropyl D-gluconamide was determined using the Gibbs equation given as: […]
ergs/cm^2 (which is equivalent to the slope of a plot of γ

[6] = Area per molecule at the water/air interface (Example 95); format: physicochemical; settings: 60 °C
Source text: The area per molecule of a surfactant at the water/air interface provides information on the degree of packing and the orientation of the adsorbed surfactant molecule. While not wishing to be bound by theory, it is believed that surfactants that have small area per molecule values tend to pack more closely at the interface than those with large area per molecule values. From the surface excess concentration at surface saturation (Γmax), the area per molecule (am) of C8 /C10 oxypropyl D-gluconamide was determined and is given by:
am =1×10^16 /Nav Γmax

[7] = Rosen, cited from earlier work
[8] = Rosen, cited from earlier work; remark: listed apart in the source
[9] = Rosen, cited from earlier work; remark: listed apart in the source
[10] = Rosen, cited from earlier work; remark: listed apart in the source
[11] = Surface tension at the water/air interface (Example 91); format: physicochemical; settings: 60 °C
Protocol: An important characteristic feature that surfactants have is the tendency for them to absorb at the water/air interface in an oriented manner, thereby altering the interfacial free energy of that surface. The surface free energy per unit area or surface tension (γ), is a measure of this work and may be considered as the minimum amount of work required to bring sufficient surfactant molecules to the surface.
The surface tension (γ) value of C8 /C10 oxypropyl D-gluconamide was determined and is set forth below: […]

[12] = Ross-Miles foam height assay of aldonamides (Examples 81-84); format: physicochemical; settings: 0.1% aldonamide, 40° C. (if not soluble, about 5°-10° C. above Krafft point), 0 ppm hardness
Protocol: In the Ross-Miles method, 200 mL of a suffactant solution contained in a pipette of specified dimensions with a 2.9 -mm-i.d. orifice is allowed to fall 90 cm onto 50 mL of the same solution contained in a cylindrical vessel maintained at a given temperature by means of a water jacket. The height of the foam produced in the cylindrical vessel is read immediately after all the solution has run out of the pipette and then again after a given amount of time.
Using this method, the foam production (initial foam height in mm) and foam stability (final foam height after 10 minutes in mm) were measured at 0.1% aldonamtde concentration, 40° C. and 0 ppm (parts per million) hardness.

[13] = Viscosity of prototype shampoo compositions with sodium lauryl sulfate, Brookfield Digital Viscometer (Example 88); format: physicochemical; settings: vs no thickener
Protocol: as §1, §2
It is well known that the viscosity of a liquid composition comprising of anionic surfactant can be modified by the addition of inorganic salts, such as sodium chloride. However, in the absence of an organic modifier, high levels of salt may be necessary to achieve the required viscosity which may lead to problems of storage at cold temperature or even salting out certain ingredients. In practice, however, the viscosity of a liquid composition is modified by the simultaneous addition of thickener and small amounts of inorganic salt (viscosity cobuilder). The combined effect is greater than either one alone. The viscosity of the above prototype shampoo composition comprising various amounts of heteroatom containing alkyl aldonamide compound is as follows: […]

[14] = Viscosity of prototype shampoo compositions of Example 86, Brookfield Digital Viscometer; format: physicochemical; settings: 4.0% thickener
Source text: The results are as follows:

zein = system: zein
Source text: The zein solubilization assay was developed to determine the biological effects of surfactants on the skin. The protein is normally in soluble in water, but can be brought into solution by interaction with surfactants. The extent of zein dissolved is related to the irritation potential (M. J. Schwinger, Kolloid-Z. Z. Poly., 233, 848, 1969). The greater the zein solubilization, the greater the irritation potential of that surfactant on the skin.
Thus, a 1% solution of surfactant (30 mls) was added to 1.5 g of zein and stirred at room temperature for 1 hour. Residual zein was collected and dried to constant weight. Differences between starting and residual weights were used to calculate % zein solubilized.

[15] = Micellar shape and structure, packing parameter (Example 96); settings: T=333.15° K.
Source text: A theory of miceIlar structure, based upon the geometry of various micelle shapes and the space occupied by the surfactant has been disclosed by J. N. Israelachvili, D. J. Mitchell and B. W. Ninham in the J. Chem. Soc. Faraday Trans. 2, 1525, 72, (1976) which is given as the packing parameter (p).
VT =V(CH3) +(nc -1)V(CH2) and represents the volume occupied by the hydrophobic groups in the miceliar core at a given temperature.
1c= 1.50+1.26 nc Å and represents the length of the hydrophobic group in the core.
am =area per molecule or the cross-sectional area occupied by the hydrophilic group at the interface.
nc =total number of carbons in the alkyl chain.

[16] = 3.0% thickener in […] sodium lauryl sulfate shampoo
[17] = 5.0% thickener in […] sodium lauryl sulfate shampoo

Compound	Appearance (Time) [1, 16]	Appearance (Time) [1, 17]	γ (surface tension) [11] [dyn/cm]	pC20 [3]	.PI.cmc (surface pressure) ([4]; estimated by extrapolation) [dyn/cm]	Γmax (surface excess concentration at surface saturation) [5]	am (area per molecule) ([6]; estimated by extrapolation) [Å^2]	pC20 ([7]; 25 °C)	pC20 ([7]; 40 °C)	.PI.cmc (surface pressure) ([8]; 25 °C) [dyn/cm]	CMC/C20 ([8]; 25 °C)	.PI.cmc (surface pressure) ([8]; 40 °C) [dyn/cm]	CMC/C20 ([8]; 40 °C)	Γmax (surface excess concentration at surface saturation) ([9]; 25 °C)	Γmax (surface excess concentration at surface saturation) ([9]; 40 °C)	am (area per molecule) ([10]; 25 °C) [Å^2]	am (area per molecule) ([10]; 40 °C) [Å^2]	also measured
CCCCCCCCCCCCNC(=O)[C@H](O)[C@@H](O)[C@H](O)[C@H](O)CO [C12 D-Gluconamide, dodecyl D-gluconamide]	Precipitate (2 days)	Precipitate (1 hour)	–	–	–	–	–	–	–	–	–	–	–	–	–	–	–	CMC ([2]; 60 °C): None; water solubility ([2]; 60 °C table entry / discussion): insoluble in water and can not form micelles
CCCCCCCCCCCCOCCOCCOCCOCCOCCOCCOCCO [Dodecylhepta(oxyethylene) Ether]	–	–	–	5.41	36.8	2.71 × 10^-10 mole/cm^2	61.0	5.26	5.28	38.3	14.9	38.5	13.9	2.90 × 10^-10 mole/cm^2	2.77 × 10^-10 mole/cm^2	57.3	59.9	–
CCCCCCCCCCCCOCCOCCOCCOCCOCCOCCOCCOCCO [Dodecylocta(oxyethylene) Ether]	–	–	–	5.39	36.3	2.40 × 10^-10 mole/cm^2	69.0	5.20	5.22	37.2	17.3	37.3	15.4	2.52 × 10^-10 mole/cm^2	2.46 × 10^-10 mole/cm^2	66.0	67.4	–
O [Water]	–	–	60.2	–	–	–	–	–	–	–	–	–	–	–	–	–	–	–
C8 /C10 oxypropyl D-gluconamide	Clear	Clear	29.2	–	–	–	–	–	–	–	–	–	–	–	–	–	–	Foam Height Initial [12]: 212 mm; Foam Height Final ([12]; after 10 minutes): 165 mm; Appearance (Time) ([1]; 4.0% thickener in […] sodium lauryl sulfate shampoo): Clear; Increase (viscosity) ([13]; 1.0% thickener): 13 ×; Increase (viscosity) ([13]; 2.0% thickener): 27 ×; Increase (viscosity) ([13]; 3.0% thickener): 80 ×; Increase (viscosity) ([13]; 4.0% thickener): 148 ×; Increase (viscosity) ([13]; 5.0% thickener): 860 ×; increased the viscosity of that composition ([14]; Example 86 shampoo (2395/22)): 109 times; Viscosity ([14]; Example 86 shampoo, 22° C.): 2395 Centipoise; % Zein Solubilized (zein): 6%; .PI.cmc (surface pressure) [4]: 38.5 dyn/cm; am (area per molecule) [6]: 43.1 Å^2; p (packing parameter) [15]: 0.503
